Data: EP0013790A1, “Clavulanic acid derivatives, their preparation and pharmaceutical compositions containing them” (BEECHAM GROUP PLC, priority 1978, dated 1980)
≈ marks a conversion by molar mass, not a printed value.

How the values were obtained:
[1] = system: E. coli JT 39; assay: MIC by standard microtitre method, alone and in admixture with ampicillin; assay type: cell-based; conditions: Escherichia coli, JT39; compound alone
Description: (§1) The MICs of ampicillin, 9-O-(N-glycyl)-2-amino- ethylclavulanic acid (GAECA) alone and in admixture against a number of bacteria were determined by a standard microtitre method. The results obtained were as follows: The MICs of ampicillin, 9-O-(N-alanyl)-2-amino- ethylclavulanic acid (AAECA) alone and in admixture against a number of bacteria were determined by a standard microtitre method.

[2] = system: Proteus C 889; assay: as above; assay type: cell-based; conditions: compound alone
Description: as §1

[3] = system: Staph. aureus Russell; assay: as above; assay type: cell-based; conditions: compound alone; for MIC: Staphylococcus aureus
Description: as §1

[4] = system: Klebsiella aerog. E.70; assay: as above; assay type: cell-based; conditions: compound alone
Description: as §1

[5] = system: E.Col: E96 (R + strain); assay: Synergistic activity in mice infected intraperitoneally; assay type: in vivo; conditions: mice infected intraperitoneally with E.Col: E96 (R + strain); oral and sub-cutaneous route
Text: The results obtained were as follows: • Synergistic activity in Mice infected intraperitoneally with E.Col: E96 (R + strain) [formula]

| SMILES | MIC [1] [µg/mL] | MIC [2] [µg/mL] | MIC [3] [µg/mL] | MIC [4] [µg/mL] | Synergistic activity in vivo [5] | MIC (µg/ml) Proteus C 889 [2] [µg/mL] | MIC (µg/ml) Staph. aureus Russell [3] [µg/mL] |
| --- | --- | --- | --- | --- | --- | --- | --- |
| C[C@H](N)C(=O)NCCOC/C=C1\O[C@@H]2CC(=O)N2[C@H]1C(=O)O [AAECA, 9-0-(N-L-alanyl)-2-aminoethylclavulanic acid] | 16 (≈ 51.1 µM) | 250 (≈ 798 µM) | 8 (≈ 25.5 µM) | 125 (≈ 399 µM) | good activity in vivo by both the oral and sub-cutaneous route |  |  |
| CC1(C)S[C@@H]2[C@H](NC(=O)[C@H](N)c3ccccc3)C(=O)N2[C@H]1C(=O)O [Ampicillin, ampicillin, reference compound] | 2000 (≈ 5720 µM) | 2000 (≈ 5720 µM) | 250 (≈ 715 µM) | 500 (≈ 1430 µM) |  | 1000 (≈ 2860 µM) | 500 (≈ 1430 µM) |
| NCC(=O)NCCOC/C=C1\O[C@@H]2CC(=O)N2[C@H]1C(=O)O [GAECA, 9-0-(N-Glycyl)-2-aminoethylclavulanic acid] | 51.2 (≈ 171 µM) | 250 (≈ 835 µM) | 8 (≈ 26.7 µM) | 62.5 (≈ 209 µM) |  |  |  |
